Source: ChEMBL document CHEMBL1138543, “Design and synthesis of calpain inhibitory 6-pyridone 2-carboxamide derivatives” (Eur J Med Chem, 2009)

The compounds below were run against T1, Calpain-1 catalytic subunit (Homo sapiens, UniProt P07384) (assay: Inhibition of human erythrocytes mu-calpain by spectrofluorimeter).
T1 sequence (P07384 whole entry): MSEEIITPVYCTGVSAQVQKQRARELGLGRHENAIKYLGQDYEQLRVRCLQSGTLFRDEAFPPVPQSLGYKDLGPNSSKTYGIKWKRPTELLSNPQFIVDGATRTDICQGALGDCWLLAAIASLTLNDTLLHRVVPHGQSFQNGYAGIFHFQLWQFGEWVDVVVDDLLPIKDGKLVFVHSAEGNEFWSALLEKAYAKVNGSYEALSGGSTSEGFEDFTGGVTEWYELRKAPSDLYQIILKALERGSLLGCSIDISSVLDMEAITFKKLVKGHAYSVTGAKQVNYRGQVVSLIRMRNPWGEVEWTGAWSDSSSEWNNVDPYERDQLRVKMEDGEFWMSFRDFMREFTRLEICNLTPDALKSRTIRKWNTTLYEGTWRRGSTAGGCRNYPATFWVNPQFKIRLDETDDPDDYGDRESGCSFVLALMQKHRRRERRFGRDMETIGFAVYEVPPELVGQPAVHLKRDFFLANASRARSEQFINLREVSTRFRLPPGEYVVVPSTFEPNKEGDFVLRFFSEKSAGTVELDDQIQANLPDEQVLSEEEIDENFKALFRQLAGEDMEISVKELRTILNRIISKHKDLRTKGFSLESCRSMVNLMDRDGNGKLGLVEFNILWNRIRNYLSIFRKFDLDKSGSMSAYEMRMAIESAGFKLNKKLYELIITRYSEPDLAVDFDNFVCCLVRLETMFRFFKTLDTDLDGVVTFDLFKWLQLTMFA
With `CNC(=O)C(=O)[C@H](Cc1ccccc1)NC(=O)c1[nH]c(=O)ccc1C` the IC50 was 91.4 µM. Work on `CCNC(=O)C(=O)[C@H](Cc1ccccc1)NC(=O)c1[nH]c(=O)ccc1C` yielded an IC50 of 40.2 µM. With `Cc1ccc(=O)[nH]c1C(=O)N[C@@H](Cc1ccccc1)C(=O)C(=O)NC(C)C` the IC50 was greater than 100 µM. `Cc1ccc(=O)[nH]c1C(=O)N[C@@H](Cc1ccccc1)C(=O)C(=O)NCc1ccccc1` showed an IC50 of 64.6 µM. `Cc1ccc(=O)[nH]c1C(=O)N[C@@H](Cc1ccccc1)C(=O)C(=O)NCc1ccc(F)cc1` showed an IC50 of 22.1 µM. `Cc1ccc(=O)[nH]c1C(=O)N[C@@H](Cc1ccccc1)C(=O)C(=O)NCCc1ccccc1` was tested, and the IC50 was 7.41 µM. `COc1ccc(CCNC(=O)C(=O)[C@H](Cc2ccccc2)NC(=O)c2[nH]c(=O)ccc2C)cc1` gave an IC50 of 6.19 µM. `COc1ccc(CNC(=O)C(=O)[C@H](Cc2ccccc2)NC(=O)c2[nH]c(=O)ccc2C)cc1` showed an IC50 of 6.19 µM. With `Cc1ccc(=O)[nH]c1C(=O)N[C@@H](Cc1ccccc1)C(=O)C(=O)NCCc1ccccn1` the IC50 was 34 µM. Work on `Cc1ccc(=O)[nH]c1C(=O)N[C@@H](Cc1ccccc1)C(=O)C(N)=O` yielded an IC50 of 2.81 µM. With `COc1ccc(CNC(=O)C(=O)[C@H](Cc2ccccc2)NC(=O)c2[nH]c(=O)ccc2C)cc1OC` the IC50 was 35.3 µM. `Cc1ccc(=O)[nH]c1C(=O)N[C@@H](Cc1ccccc1)C(=O)C(=O)NCc1ccccn1` was tested, and the IC50 was 84.8 µM.
